Values of other authors as cited in patent publication US8260406B2, “System and method for analyzing complex curvature of ECG curves” (Aalborg Universitet, priority 2006, dated 2012).

System: cardiac repolarization (T-wave) in healthy subjects
Conditions: 30 min after sotalol administration; increase; p<0.05; occurring prior to QT prolongation; PCA of ECG Holter recordings

## CC(C)NCC(O)c1ccc(NS(C)(=O)=O)cc1 (stereo not shown) [sotalol]
  turbulence of repolarization velocity increased by: 9.02%
